According to PubChem BioAssay AID1963430 (Molecular Pharmacology Branch, DTP, NCI, 2024):
Where “and” joins values, the source holds several entries; their conditions need not be identical. Equal entries are not always repeated.

Tested on: 521955-158-R2-J5-PDC complex spheroid growth, % test/control
Assay: Anticancer human tumor 521955-158-R2-J5-PDC patient-derived pancreatic carcinoma cell line growth inhibition [Asc]
Settings: for viability, T/C: stronger effect = lower value
Method: Multicellular complex tumor spheroid response to apoptosis pathway targeting inhibitors Alrizomadlin, Pelcitoclax, and Dasminapant in combination with a variety of drugs and investigational agents in selected tumor cell lines
The MDM2 inhibitor alrizomadlin, the Bcl-2/Bcl-xL inhibitor pelcitoclax, and the IAPs inhibitor dasminapant were evaluated both individually and in combination with standard of care and investigational anticancer small molecules within a complex spheroid model of solid tumors. . Complex spheroids include a stromal component modeled by human endothelial cells (HUVEC) and fibroblasts modeled by human mesenchymal stem cells (MSCs). The concentration ranges selected for each drug and investigational agent were based upon clinically achievable concentrations if the clinical Cmax of the agent was known.
Compounds. The drugs and investigational agents: alrizomadlin (APG-115; NSC831270), pelcitoclax (APG-1252; NSC835773), dasminapant (APG-1387;NSC834197), TAK-243 (NSC785004), copanlisib (NSC809693), olaparib (NSC753686), talazoparib (NSC767125), cobimetinib (NSC 768068), eltanexor (KPT-8602, NSC 794443), abemaciclib (NSC 768073), sotorasib (NSC818433), adagrasib (NSC 831453), MRTX-1133 (NSC 836407), Iadademestat (ORY1001, NSC 806812), and RMC-4630 (NSC839698), were obtained from the NCI Developmental Therapeutics Program Chemical Repository. The FDA-approved anticancer drug set is available from the Developmental Therapeutics Program at https://dtp.cancer.gov/organization/dscb/obtaining/available plates.htm. […] The stock solutions were prepared in dimethyl sulfoxide (DMSO, Sigma-Aldrich, St. Louis, MO, cat. D2650) at 800-fold the tested concentration and stored at -70 degrees C prior to their use. All drugs and investigational agents were tested over a range starting from a high concentration at or near the clinical Cmax and decreasing in half-log increments. If the clinical Cmax for an agent had not been determined, the highest concentration tested was 10 microM.
The patient-derived cancer (PDC) cell lines include five colon adenocarcinomas: 186277-243-T-J2-PDC, 616215-338-R-J1-PDC, 439559-082-T-J2-PDC, 463943-066-T-J2-PDC, and 519858-162-T-J1-PDC; three pancreatic carcinomas: 323965-272-R-J2-PDC, 521955-158-R6-J3-PDC, and 521955-158-R2-J5-PDC; two uterine sarcomas: 327498-152-R-J2-PDC and 993429-296-R-J1-PDC; two rhabdomyosarcomas: 755483-174-R-J1-PDC and 772245-204-R-J1-PDC; two soft tissue sarcomas: 126254-015-R-J1-PDC and 494315-158-R-J1-PDC; two malignant fibrous histiocytomas: 317291-083-R-J1-PDC and 596521-263-R-J1-PDC; two breast carcinomas: 171881-019-R-J1-PDC and 885512-296-R-J2-PDC; and one ovarian carcinoma: 6556581-035-R-J-PDC were obtained from the NCI PDMR, (https://pdmr.cancer.gov). The established cell lines HSSY-2 synovial sarcoma (RRID:CVCL 8719), SYO-1 synovial sarcoma (RRID:CVCL_7146), MPNST malignant peripheral neural sheath tumor were obtained from the Sloan Kettering Institute. The following established cell lines were purchased from the American Type Culture Collection (ATCC, Manassas, VA), Sor the received from the NCI repository:, PANC-1 pancreatic carcinoma (CRL-1469, RRID:CVCL_0480), OVCAR-5 ovarian carcinoma (RRID:CVCL_1628), OVCAR-8 ovarian carcinoma (RRID:CVCL_1629), , MCF-7 breast carcinoma (CRL-12584, RRID:CVCL_0031), MDA-MB-231 breast carcinoma (CRL-12532, RRID:CVCL_0062), NCI-H1876 small cell lung carcinoma (CRL-5902, RRID:CVCL_1503), NCI-H510A small cell lung carcinoma (HTB-184, RRID:CVCL_1565), NCI-H1417 (CRL-5869, RRID:CVCL_1469), and NCI-H196 small cell lung carcinoma (CRL-5823, RRID:CVCL_1509). Dr. Peter Houghton (Greehey Children's Cancer Research Institute, University of Texas Health Science Center, San Antonio, TX) provided Rh-18 rhabdomyosarcoma (RRID:CVCL_1659). Pooled donor human umbilical vein endothelial cells (HUVEC, Lonza, cat. CC-2519) and human mesenchymal stem cells (hMSC, Lonza, cat. PT-2501) were purchased from Lonza (Walkersville, MD).
Cell Culture. […]

[1] = curve of first compound, second compound 0.1 µM
[2] = curve of first compound, second compound 0.316 µM
[3] = curve of first compound, second compound 1 µM
[4] = second compound 0.1 µM, first compound 0.0316 µM
[5] = second compound 0.1 µM, first compound 0.1 µM
[6] = second compound 0.1 µM, first compound 0.316 µM
[7] = second compound 0.1 µM, first compound 1 µM
[8] = second compound 0.316 µM, first compound 0.0316 µM
[9] = second compound 0.316 µM, first compound 0.1 µM
[10] = second compound 0.316 µM, first compound 0.316 µM
[11] = second compound 0.316 µM, first compound 1 µM
[12] = second compound 1 µM, first compound 0.0316 µM
[13] = second compound 1 µM, first compound 0.1 µM
[14] = second compound 1 µM, first compound 0.316 µM
[15] = second compound 1 µM, first compound 1 µM
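Further: spheroids exposed to agents for 7 days before readout.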
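Wherever viability, T/C is given: 100% = DMSO vehicle control viability.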

C=C(F)C(=O)N1CCN(c2nc(OCC3CCCN3C)nc3c2CCN(c2cccc4cccc(Cl)c24)C3)CC1CC#N (stereo not drawn) + Cc1c(S(C)(=O)=O)c(-c2cc(F)cc(N3CCN(c4ccc(NS(=O)(=O)c5ccc(NC(CCN6CCC(C(=O)OCCCP(=O)(O)O)CC6)CSc6ccccc6)c(S(=O)(=O)C(F)(F)F)c5)cc4)CC3)c2)c(-c2ccc(Cl)cc2)n1C(C)C
IC50 [1]: 4.85 µM
IC50 [2]: 4.94 µM
IC50 [3]: 5.24 µM
IC50 (curve of first compound, second compound 3.16 µM): 5.01 µM
IC50 (curve of first compound, second compound 10 µM): 6.66 µM
viability, T/C [4]: 64.6%
viability, T/C [5]: 69.9%
viability, T/C [6]: 55.4%
viability, T/C [7]: 105%
viability, T/C (second compound 0.1 µM, first compound 3.16 µM): 101%
viability, T/C (second compound 0.1 µM, first compound 10 µM): 0.26%
viability, T/C [8]: 69%
viability, T/C [9]: 76.6%
viability, T/C [10]: 81.7%
viability, T/C [11]: 84.3%
viability, T/C (second compound 0.316 µM, first compound 3.16 µM): 95.5%
viability, T/C (second compound 0.316 µM, first compound 10 µM): 0.21%
viability, T/C [12]: 105%
viability, T/C [13]: 82.9%
viability, T/C [14]: 69.2%
viability, T/C [15]: 80.8%
viability, T/C (second compound 1 µM, first compound 3.16 µM): 106%
viability, T/C (second compound 1 µM, first compound 10 µM): 0.21%
viability, T/C (second compound 3.16 µM, first compound 0.0316 µM): 62.4%
viability, T/C (second compound 3.16 µM, first compound 0.1 µM): 80.9%
viability, T/C (second compound 3.16 µM, first compound 0.316 µM): 69.5%
viability, T/C (second compound 3.16 µM, first compound 1 µM): 104%
viability, T/C (second compound 3.16 µM, first compound 3.16 µM): 99.2%
viability, T/C (second compound 3.16 µM, first compound 10 µM): 0.23%
viability, T/C (second compound 10 µM, first compound 0.0316 µM): 190%
viability, T/C (second compound 10 µM, first compound 0.1 µM): 168%
viability, T/C (second compound 10 µM, first compound 0.316 µM): 195%
viability, T/C (second compound 10 µM, first compound 1 µM): 188%
viability, T/C (second compound 10 µM, first compound 3.16 µM): 138%
viability, T/C (second compound 10 µM, first compound 10 µM): 2.12%

CCN1CCN(Cc2ccc(Nc3ncc(F)c(-c4cc(F)c5nc(C)n(C(C)C)c5c4)n3)nc2)CC1 + CNC(C)C(=O)NC1CN(S(=O)(=O)c2cccc(S(=O)(=O)N3CCC4CCC(C(=O)NC(c5ccccc5)c5ccccc5)N4C(=O)C(NC(=O)C(C)NC)C3)c2)CCC2CCC(C(=O)NC(c3ccccc3)c3ccccc3)N2C1=O
IC50 (curve of first compound, second compound 0.01 µM): > 1 µM
IC50 (curve of first compound, second compound 0.0316 µM): > 1 µM
IC50 [1]: > 1 µM
IC50 [2]: > 1 µM
IC50 [3]: > 1 µM
viability, T/C (second compound 0.01 µM, first compound 0.00316 µM): 89.3%
viability, T/C (second compound 0.01 µM, first compound 0.01 µM): 85.6%
viability, T/C (second compound 0.01 µM, first compound 0.0316 µM): 71.2%
viability, T/C (second compound 0.01 µM, first compound 0.1 µM): 61.6%
viability, T/C (second compound 0.01 µM, first compound 0.316 µM): 73.2%
viability, T/C (second compound 0.01 µM, first compound 1 µM): 94.8%
viability, T/C (second compound 0.0316 µM, first compound 0.00316 µM): 87.8%
viability, T/C (second compound 0.0316 µM, first compound 0.01 µM): 106%
viability, T/C (second compound 0.0316 µM, first compound 0.0316 µM): 82.5%
viability, T/C (second compound 0.0316 µM, first compound 0.1 µM): 84.1%
viability, T/C (second compound 0.0316 µM, first compound 0.316 µM): 83.6%
viability, T/C (second compound 0.0316 µM, first compound 1 µM): 102%
viability, T/C (second compound 0.1 µM, first compound 0.00316 µM): 97.6%
viability, T/C (second compound 0.1 µM, first compound 0.01 µM): 91.7%
viability, T/C [4]: 76.6%
viability, T/C [5]: 76.9%
viability, T/C [6]: 86.7%
viability, T/C [7]: 96.8%
viability, T/C (second compound 0.316 µM, first compound 0.00316 µM): 76.3%
viability, T/C (second compound 0.316 µM, first compound 0.01 µM): 76.8%
viability, T/C [8]: 83.5%
viability, T/C [9]: 66.6%
viability, T/C [10]: 69.7%
viability, T/C [11]: 105%
viability, T/C (second compound 1 µM, first compound 0.00316 µM): 95.5%
viability, T/C (second compound 1 µM, first compound 0.01 µM): 85.1%
viability, T/C [12]: 64.8%
viability, T/C [13]: 57.7%
viability, T/C [14]: 69.9%
viability, T/C [15]: 103%

O=C(c1cc(Cc2n[nH]c(=O)c3ccccc23)ccc1F)N1CCN(C(=O)C2CC2)CC1
viability, T/C (compound 0.0316 µM): 80.7% and 80% and 97.9%
viability, T/C (compound 0.1 µM): 79.6% and 89.4% and 92.2%
viability, T/C (compound 0.316 µM): 71.8% and 89.7% and 84.1%
viability, T/C (compound 1 µM): 62.2% and 88.6% and 85.9%
viability, T/C (compound 3.16 µM): 76.3% and 93.4% and 74.3%
viability, T/C (compound 10 µM): 60.8% and 63.9% and 61.5%
IC50 (curve of compound): > 10 µM

NC(=O)C(=Cn1cnc(-c2cc(C(F)(F)F)cc(C(F)(F)F)c2)n1)c1cncnc1
viability, T/C (compound 0.000949 µM): 68.4% and 84.3% and 83.5%
viability, T/C (compound 0.003 µM): 42.6% and 54.8% and 95.5%
viability, T/C (compound 0.00949 µM): 37.3% and 48.3% and 47.9%
viability, T/C (compound 0.03 µM): 28.6% and 36.7% and 57.8%
viability, T/C (compound 0.0949 µM): 27.8% and 32.6% and 43.7%
viability, T/C (compound 0.3 µM): 23.8% and 48% and 30.4%
